Measured values reported in US20250115942A1, “SCREENING METHOD FOR ANTI-PSEUDOMONAL AGENTS AND COMPOSITIONS AND METHODS FOR TREATING PSEUDOMONAS INFECTIONS” (Board of Regents for Oklahoma Agricultural and Mechanical …, priority 2021, published 2025).

Key:
[1] = tested on: Pseudomonas aeruginosa PA14; assay: Growth curve analysis (OD600) in LB-Lennox; assay type: cell-based
Description: Strains of interest were grown on LB plates overnight, then inoculated into LB liquid broth until late stationary phase was reached (about 18 hours). Strains were then diluted 1,000-fold into fresh medium and grown to early exponential phase (about 4 hours). The optical density at 600 nm (OD600) was measured, and all cultures were normalized to an OD600 equal to 0.1. […] The plate was incubated in a BioTek Synergy H1 plate reader (BioTek, USA) at 37° C. for 20 h with orbital shaking. OD600 measurements were obtained every 2 minutes. […]

[2] = tested on: R/F pyocin gene transcription (P07990-lux reporter); assay: Kinetic luciferase assay, P07990-lux reporter for R/F pyocin expression; assay type: cell-based, Pseudomonas aeruginosa
Description: Strains of interest were cultured as described in the growth curve analysis section. Luminescence was measured in black or white clear-bottom 96-well microtiter plates at 3-min intervals at a sensitivity (gain) setting of 135 or 200 together with the OD600 for 20 hours on a BioTek Synergy H1 plate reader (BioTek, USA). Final luciferase activity values were calculated by normalizing luciferase luminescence to culture density.
Strains of interest were grown on LB plates overnight, and single colonies were inoculated into LB liquid broth with appropriate antibiotics and grown overnight with shaking at 37° C. Strains were then diluted 1,000-fold into fresh LB medium and grown to early exponential phase (2-4 hours). […] The plate was incubated in a BioTek Synergy H1 plate reader (BioTek, USA) at 37° C. for 20 h with double-orbital shaking. OD600 and luminescence (gain=135, integration time, 1 sec) measurements were obtained every 10 minutes. At least 3 biological replicates were assayed for each combination of strain and condition. Results were analyzed in MS Excel and plotted using GraphPad Prism.

[3] = tested on: R/F pyocin expression (P07990-gfp reporter); assay type: cell-based, Pseudomonas aeruginosa; details: wild-type PA14; 50 μM peptide, 135 min
Description: Strains of interest were grown in 3 mL of LB liquid broth overnight to obtain a saturated culture. They were then diluted 1,000-fold in fresh LB and grown to early exponential phase (about 4 hours). Cultures were concentrated by centrifuging 1 mL of exponential culture into a microcentrifuge tube at 5000 g for 1 min and resuspending in 100 μL. Cells were immobilized by spotting 0.5 μL of the concentrated mixture onto the pad and covering with cover glass. Imaging was performed on a Nikon Eclipse Ti inverted fluorescence microscope equipped with a Photometrics Prime 95B sCMOS digital camera, a Lumencor SOLA SE II 365 LED Light Engine, and an OKO temperature-controlled enclosure. Snapshot images of the slides were taken at 100× magnification in both phase and GFP channels. Automated timelapse imaging was performed at 37° C. For quantification of GFP-positive cells, images were analyzed using the MicrobeJ plugin for ImageJ, segmenting on phase-contrast and taking the mean GFP values of the corresponding fluorescence images. […]
Strains of interest were grown in 3 mL of LB liquid broth with appropriate antibiotics overnight. […] Imaging was immediately performed using a Nikon Eclipse Ti inverted fluorescence microscope with a Photometrics Prime 95B sCMOS digital camera, a Lumencor SOLA SE II 365 LED Light Engine, and an OKO temperature-controlled enclosure. […]

[4] = wild-type cells, 0.1-50 μM peptide with 0.03 μg/ml ciprofloxacin
[5] = wild-type cells, peptide 25-100 μM
[6] = wild-type cells, peptide concentrations in the 0.1-10 μM range (inhibitor: below 10 μM)
[7] = wild-type cells, 50 μM peptide co-treatment with 0.03 μg/ml ciprofloxacin

## CO[C@@]12[C@H](COC(N)=O)C3=C(C(=O)C(C)=C(N)C3=O)N1C[C@@H]1N[C@@H]12 [MMC, mitomycin C]
[1]; wild-type cells, 0.1 μg/ml MMC
  culture growth: inhibited cell growth to a slightly greater degree than 0.03 μg/ml ciprofloxacin
[1]; xerCY272F, 0.1 μg/ml MMC
  culture growth: initially outgrew both untreated control cultures
[2]; wild-type cells, 0.1 μg/ml MMC
  peak pyocin expression, OD-normalized: peaked at approximately tenfold that induced by ciprofloxacin
[2]; xerCY272F ΔrecA, 0.1 μg/ml MMC
  pyocin expression: abolished ciprofloxacin- and MMC-mediated stimulation of pyocin expression
[2]; xerCY272F, 0.1 μg/ml MMC
  pyocin expression: less expression in xerCY272F cultures than in the wild type
[2]; ΔprtN (wild-type background), 0.1 μg/ml MMC
  pyocin expression: deletion of prtN abolished the ability of MMC to stimulate pyocin expression
[2]; ΔrecA, 0.1 μg/ml MMC
  pyocin expression: deletion of recA fully abolished this very strong MMC-stimulated pyocin induction
[2]; ΔxerC cells, 0.1 μg/ml MMC
  peak pyocin expression relative to untreated cells: approximately twofold stronger, peak of expression than in untreated cells
[2]; ΔxerC ΔprtN, 0.1 μg/ml MMC
  pyocin expression: fully abrogated pyocin expression
[2]; ΔxerC ΔrecA, 0.1 μg/ml MMC
  pyocin expression: independent of RecA

## O=C(O)c1cn(C2CC2)c2cc(N3CCNCC3)c(F)cc2c1=O [ciprofloxacin]
[1]; WT PA14 cells, 0.03 μg/ml ciprofloxacin
  culture growth: slower growth en route to a slightly lower final OD
[1]; xerCY272F, 0.03 μg/ml ciprofloxacin
  culture growth: initially outgrew both untreated control cultures
[1]; Δ69700 cells, 0.03 μg/ml ciprofloxacin
  OD600 reached in growth curve: 0.8
[1]; ΔxerC strain, 0.03 μg/ml ciprofloxacin
  culture growth (ciprofloxacin sensitivity): sensitivity to ciprofloxacin similar to Δ69700

## WKHYNY
[1]; [4]
  culture growth: impacted neither culture growth nor pyocin expression
[1]; [5]
  culture growth: no inhibition of growth
[1]; [6]
  culture growth: correspondingly smaller effects, as did the control peptide
[1]; ΔxerC cells, peptide 25-100 μM
  culture growth: inhibited by WRWYCR but not WKHYNY
[2]; [4]
  pyocin expression: impacted neither culture growth nor pyocin expression
[2]; [5]
  pyocin expression: Neither the WRWYCR inhibitor nor the WKHYNY control elicited pyocin expression beyond the level of untreated cells
[2]; ΔxerC cells, peptide 25-100 μM
  pyocin expression: no differences in pyocin expression were observed

## WRWYCR
[1]; wild-type cells, 10 μM peptide
  culture growth: affected culture growth to a similar degree as 0.03 μg/ml ciprofloxacin
[1]; [7]
  culture growth: initial inhibition of growth
[1]; [5]
  culture growth: markedly impaired P. aeruginosa growth
[1]; [6]
  culture growth: correspondingly smaller effects
[1]; ΔxerC cells, peptide 25-100 μM
  culture growth: inhibited
[2]; wild-type cells, 10 μM peptide co-treatment with 0.03 μg/ml ciprofloxacin
  pyocin expression: earlier and higher peak of pyocin expression relative to ciprofloxacin alone
[2]; [7]
  pyocin expression: later peak of pyocin expression
[2]; wild-type cells, 0.1-10 μM peptide
  pyocin expression: no increase in pyocin expression over untreated cells
[2]; [5]
  pyocin expression: Neither the WRWYCR inhibitor nor the WKHYNY control elicited pyocin expression beyond the level of untreated cells
[2]; ΔxerC cells, peptide 25-100 μM
  pyocin expression: no differences in pyocin expression were observed
[3]
  GFP fluorescence of pyocin-GFP reporter cells: did not elicit GFP fluorescence
